Data: publication PMC10611619, “[^99mTc]Tc-PentixaTec: development, extensive pre-clinical evaluation, and first human experience” (European Journal of Nuclear Medicine and Molecular Imaging, 2023)
Where two headings read alike, the source gives them in different places. Where a SMILES comes first, the peptide text is derived from it. Side-chain parts run from the residue outwards. [ ]: non-standard residue; d: D form. The star is where a group is joined. 2Nal = N[C@@H](Cc1ccc2ccccc2c1)C(=O)O; dNMeOrn = CN[C@H](CCCN)C(=O)O; 4Abz = Nc1ccc(C(=O)O)cc1; X1 = NCCNCC(CNCCN)C(=O)*; dDap = NC[C@@H](N)C(=O)O

What was measured:
[1] = system: Jurkat xenograft bearing CB17/SCID mice; test: Biodistribution in Jurkat xenograft-bearing mice, 1 h p.i.; assay type: in vivo; conditions: n = 5, mean ± SD
Protocol: Female CB17/SCID mice bearing subcutaneous Jurkat human T cell lymphoma xenografts (for more detailed information, see supplemental material) were injected intravenously with the respective ^99mTc-labeled tracer (5–20 MBq, 0.1–0.2 nmol/mouse) under isofluorane anesthesia and were sacrificed at 1 h post-injection (p.i.). The organs of interest were dissected, and the activity concentration in weighed tissue samples was quantified using a WIZARD^2® 2480 automatic γ-Counter from Perkin Elmer (Waltham MA, USA). Biodistribution data are given in %iD/g and represent means ± SD (groups of n = 4–5 animals). Statistical analysis (t-test) was performed using GraphPad Prism.
To establish tumor xenografts, Jurkat cells (2 – 3x10^7 cells) were suspended in a mixture of RPMI 1640 medium and Matrigel (1/1; v/v) (BD Biosciences, Heidelberg, Germany), and injected subcutaneously into the right shoulder of 6–10 weeks old CB17-SCID mice from either Charles River GmbH (Sulzfeld, Germany) or the in-house mouse breeding facility. As soon as tumors had grown to a diameter of 5–8 mm (4 – 10 weeks after inoculation), mice were used for the experiments.

[2] = In vitro stability in various media (radio-TLC); assay type: in vitro ADME; conditions: for percentage of intact tracer: original product formulation
Protocol: Solutions were incubated for up to 13 h at room temperature. Sequential radio-thin layer chromatography was performed after 20 min, 40 min, 100 min, 2.6 h, 3.6 h, 4.4 h, and 13 h of incubation, and the amount of intact ligand was analyzed by integration of the TLC chromatogram.

[3] = Safety monitoring in patients (adverse events); assay type: in vivo, human
Protocol: Five patients (age, 48–72 y, median 66 y) with a history of hematological malignancy underwent imaging after intravenous injection of a median of 558 MBq (range, 417–601) [^99mTc]Tc-PentixaTec. […] Safety was assessed by monitoring adverse events after administration of [^99mTc]PentixaTec.

[4] = Blood clearance / excretion in patients; assay type: in vivo, human; conditions: for half-life: human, whole blood, iv
Protocol: [^99mTc]Tc-PentixaTec scans were performed using a dual head gamma camera (GE Discovery NM/CT 670 Pro, Milwaukee, WI, USA). In the four patients undergoing dosimetry, planar dynamic whole body scans were performed 5 min, 30 min, and 1 h with a bed speed of 30 cm/min; 2 h, 3 h, and 5 h with a speed of 12 cm/min; and 24 h with a speed of 5 cm/min after tracer injection. SPECT/CT imaging was performed following the 3-h planar imaging with 60 views and a frame duration of 8 s. Attenuation maps were generated on the basis of low-dose CT.
Venous blood samples (2.7 mL) were drawn directly before each planar scan. A cross-calibrated well-counter (Digibase, Ametek, Oak Ridge, TN, USA) was used to measure activity in the blood samples, resulting in the average activity per mL blood. Plasma half-life was calculated using NUKFIT software.

C[C@@H](NC(=O)[C@@H](CCCNC(=N)N)NC(=O)[C@@H](CN)NC(=O)C(CNCCN)CNCCN)C(=O)Nc1ccc(C(=O)NCCC[C@@H]2C(=O)N[C@@H](CCCNC(=N)N)C(=O)N[C@@H](Cc3ccc4ccccc4c3)C(=O)NCC(=O)N[C@H](Cc3ccc(O)cc3)C(=O)N2C)cc1 [[^99mTc]Tc-N4-L6-CPCR4, [^99mTc]Tc-N4-dap-r-a-Abz-CPCR4, metal not drawn] (cyclo([dY][dNMeOrn]([4Abz-dA-dR-dDap-X1])R[2Nal]G))
Biodistribution Tumor (tumor accumulation) ([1]; Jurkat xenograft): 8.6 ± 1.3 %iD/g
Biodistribution Muscle [1]: 0.3 ± 0.05 %iD/g
Biodistribution Spleen [1]: 5.6 ± 0.8 %iD/g
stability in saline and challenging conditions ([2]; diluted with saline, citrate and DTPA, room temperature): progressive decomposition
percentage of intact tracer ([2]; start): 94.5%
percentage of intact tracer ([2]; within 2.5 h): 90.6%
stability in physiological media ([2]; whole blood, serum, human serum albumin (2.5 and 5%), 13 h, room temperature): fully stable
adverse events ([3]; five patients): no adverse events were recorded
tolerability ([3]; five patients with hematologic malignancies): well tolerated
hepatobiliary excretion [4]: no significant hepatobiliary excretion
half-life ([4]; read-out: plasma half-life, median): 19 min
half-life ([4]; read-out: plasma half-life, range): 15 to 25 min
